Experimental data taken from patent US10813931B2, “Methods and compositions relating to the treatment of cancer” (THE BRIGHAM AND WOMEN'S HOSPITAL, INC., priority 2013, dated 2020).

Assays:
[1] = test system: taxane-refractory breast cancer explant; assay: Human refractory breast cancer explant, immunohistochemistry; conditions: ex vivo 72 h, taxane-containing regimen or Doxil, N=7
Experimental: Anonymous human breast cancer tissues (N=7) from patients refractory to taxane-containing regimens were incubated ex vivo in autologous patient serum in the presence or absence of taxane-containing or liposomal doxorubicin (Doxil) regimens for 72 hours. Following fixation in formalin and paraffin embedding, tissue was processed by H&E to identify tumor cells and immunohistochemistry (IHC) was performed to identify protein expression. IHC scores were determined in a third party blinded fashion by multiplying the intensity of staining at the cellular level with the percentage of cells stained per field of view.
Fresh tumor tissues were collected from breast cancer patients immediately after surgical resection at HCG cancer hospital, Bangalore, India. The tumor samples were transported to the laboratory at 4° C., in appropriate transport buffer within 60 minutes post-resection, for ex-vivo studies and molecular and pathological evaluation. […] After 48 hrs of treatment, tumor cell viability was measured and release of soluble cleaved caspase-3 and caspase-8 were determined.
Human Tumor tissues were fixed in Phos stop (Roche) containing 4% buffered formalin and embedded in paraffin. […] Immunoreactivity was scored by intensity of staining (0, no staining, 1 weak; 2 moderate; 3 strong) and percentage of positive cells. By multiplying both values, a final score was calculated. […]

[2] = test system: 4T-1 mouse mammary carcinoma; assay: 4T-1 tumor growth in Balb/C mice; assay type: in vivo
Experimental: 4-6 week old Balb/C mice (Charles River, Cambridge Mass.) were inoculated with 10^6 4 T-1 mouse mammary carcinoma cells in the left flank (Charles River, Cambridge Mass.). Mice identified with tumors were treated with docetaxel (DTX) or vehicle twice at 72 hour intervals at 10 mg/kg i.v. or 15 mg/kg i.p. and subsequently treated with dasatinib i.p. or nanoparticles i.v. 72 hours following the final DTX dose. Tumors were harvested at indicated time points and evaluated for protein phosphorylation and expression. Experimental detail provided in supplemental data.
1 million 4T-1 mouse mammary carcinoma cells suspended in 100 µL PBS were injected per left flank of 5-6 week old Balb/C (Charles River, Wilmington Mass.). DTX was dissolved in pure Ethanol at a concentration of 50 mg/ml mixed 1:1 with Polysorbate 80 (Tween 80) and brought to a final working concentration with 5% glucose in PBS. Once Tumors became palpable (˜100 mm^3), DTX or vehicle treatments were administered at 100 μL volumes. Dasatinib was dissolved in DMSO to working concentration and delivered as 50 μL injections on indicated days, 50 µL DMSO used as a control in these studies. Tumor volumes were measured by a third party unaware of treatment conditions using digital calipers (Starlett, Athol, Mass.), volumes were assessed by the following formula: (Width×Width×length)/2 and expressed as relative volume increase from day 1. Tumor homogenate was prepared by homogenization of equal weight tissue sections incubated in 3×RIPA buffer containing 2× protease/phosphatase inhibitor cocktail (Thermo Fisher, Waltham, Mass.).

[3] = test system: MDA-MB-468 (468) cell line; assay: CD44/CD24 surface expression by FACS in 468 cells; assay type: cell-based, human
Experimental: MDA-MB-231, MDA-MB-468 were purchased from ATCC. For acute treatments, cells were plated at a density of 0.5-1×10^5 cells/ml and allowed to adhere for 24-48 hr. when cells reached ˜70% confluency they were treated with antitubulins at indicated concentrations for 4-24 hours and utilized for subsequent assays. To generate chemotherapy tolerant subset, cells were treated with indicated concentrations of chemotherapy (48). Following washes with PBS, adherent cells were trypsinized and re-plated at a density of 1.5-2×10^5 cells/ml and cultured in serum-containing medium. […]
Cells were cultured as indicated and fixed with 4% paraformaldehyde in PBS for 30 min at RT and blocked in 10% goat serum (v/v). Following PBS washes, cells were incubated with indicated antibodies for 60 minutes at room temperature or overnight at 4 C and analyzed by FACS (Accuri cyomteters Inc. Ann Arbor, Mich.). Cell cycle analyzed in propidium iodide solution following incubation in 70% Ethanol overnight at 4 C and following manufacturer protocol (Genscript USA Inc. Piscataway, N.J.). AnnexinV/PI was analyzed FACS following manufacturer protocol (BD, Ann Arbor Mich.). All FACS results were analyzed by FlowJo™ software following a rigorous doublet discrimination based on FSC:A vs. width as well as FSC:A vs. height (Tree Star Inc., Ashland Oreg.). […]

## CC(=O)O[C@@]12CO[C@@H]1C[C@H](O)[C@@]1(C)C(=O)[C@H](O)C3=C(C)[C@@H](OC(=O)[C@H](O)[C@@H](NC(=O)OC(C)(C)C)c4ccccc4)C[C@@](O)([C@@H](OC(=O)c4ccccc4)[C@H]21)C3(C)C [DTX, docetaxel]
[1]
  CD44 expression (IHC): induced the over-expression of CD44
[2]; DTX days 2 and 5, day 19
  tumor re-emergence after treatment: re-emerged robustly by day 19
[2]; DTX days 2 and 5 at 10 mg/kg i.v. and 15 mg/kg i.p., vs vehicle
  tumor growth (relative tumor volume): inhibited tumor growth
[3]; 10 nM docetaxel, 24 h
  CD44/CD24 signature: induced a CD44^HI, CD24^+/HI signature
[3]; 24 hour incubation, 10 nM DTX
  CD44 surface expression: induction of CD44 was observed
